The source of these data is ChEMBL document CHEMBL1128334, “X-ray crystal structure, partitioning behavior, and molecular modeling study of piracetam-type nootropics: insights into the pharmacophore” (J Med Chem, 1995).

One data set is described as follows: Partition coefficient (logP). It is filed as physicochemical. To be noted: octanol/water.
Usually logP stands for a log measure of how a compound divides between an organic and an aqueous phase. The compound `O=C1CC2C(=O)NCC2CN1` (stereo in doubt; 2) registered a logP of -2.11. The compound `O=C1CC2C(=O)NCC2CN1` (stereo in doubt; 3) displayed a logP of -2. In the case of `CCOC(=O)C1CNC(=O)CC1C(=O)OCC` (stereo in doubt; 6), the logP is on record as -0.03. Take `CCOC(=O)C1CNC(=O)CC1C(=O)OCC` (stereo in doubt; 7): the logP is reported as 0.17.

The data set is the same for the next values; noted with them: octanol/water; read-out: logP.
Regarding `O=C1CCCCN1`, the logP was -0.47.

For the compound `O=C1NCC[C@@H]2CNC(=O)[C@H]12`, the logP is -1.95. On to `O=C1CCCN1` [2-PYRROLIDONE], for which the lipophilicity (logP) is -0.71. Same read-out and setting: the result for `NC(=O)CN1CCCC1=O` [PIRACETAM] reads -1.54; that for `O=C1CCC2CCC(=O)N12` [ROLZIRACETAM], -1.11.
